Results taken from publication PMC11578313, “Miniaturized Modular Click Chemistry‐enabled Rapid Discovery of Unique SARS‐CoV‐2 M^pro Inhibitors With Robust Potency and Drug‐like Profile” (Advanced Science, 2024).

Experiments:
[1] = system: HCoV‐OC43; assay: microbe, parasite or virus in culture; type: cell-based; details: Betacoronavirus 1, MRC5, read-out: EC50 ± SD, HCoV‐OC43
[2] = system: SARS‐CoV‐2 Omicron (hCoV‐19/Korea/KDCA447321/2021); assay: microbe, parasite or virus in culture; type: cell-based; details: Severe acute respiratory syndrome coronavirus 2, Calu-3, read-out: EC50 ± SD, SARS‐CoV‐2 Omicron

`Cc1cncc(C(=O)N2C[C@H]3CC[C@@H](C2)N3[C@H](c2cccc(F)c2)c2cn(CCc3ccsc3)nn2)c1` [Compound C5N17B] gave an EC50 [1] of 2.71 ± 0.51 µM and an EC50 [2] of 0.135 ± 0.003 µM.
